Here are results for 19 compounds from ChEMBL document CHEMBL1129427, “Novel AMPA receptor antagonists: synthesis and structure-activity relationships of 1-hydroxy-7-(1H-imidazol-1-yl)-6-nitro-2,3(1H,4H)- quinoxalinedione and related compounds” (J Med Chem, 1996).

Test [1] addresses Glutamate receptor ionotropic, AMPA (Rattus norvegicus, UniProt P19490+P19491+P19492+P19493).
Description: Binding affinity towards Ionotropic glutamate receptor AMPA was determined in rat whole brain membrane using [3H]AMPA as radioligand
For test [2], the target named is Glutamate receptor ionotropic, kainate. Put plainly: Binding affinity towards Ionotropic glutamate receptor kainate was determined in rat cortical membrane using [3H]KA as radioligand. The format is cell membranes.
In test [3] the target is Glutamate NMDA receptor. Put plainly: Binding affinity towards NMDA receptor was determined in rat whole brain membrane using NMDA-sensitive [3H]Glu as radioligand. The format is cell membranes.
Test [4] concerns the target Glutamate receptor ionotropic, NMDA 1 (Rattus norvegicus, UniProt P35439). Kind of test: Binding affinity towards glycine binding site on NMDA receptor was determined in rat whole brain membrane using strychnine-insensitive [3H]Gly as radioligand. The format is cell membranes.

For the compound `CCCn1c(=O)c(=O)[nH]c2cc([N+](=O)[O-])c(-n3ccnc3)cc21`, the inhibition constant Ki in test [1] came to 140 nM. The same measure, in the same setting: then `O=c1[nH]c2cc(-n3ccnc3)c([N+](=O)[O-])cc2n(O)c1=O`, with 440 nM. The same measure, in the same setting: then `COn1c(=O)c(=O)[nH]c2cc([N+](=O)[O-])c(-n3ccnc3)cc21`, with 380 nM; and `O=c1[nH]c2cc([N+](=O)[O-])c(-n3ccnc3)cc2n(C2CCNC2)c1=O` (configuration not stated), with 550 nM. As to `O=c1[nH]c2cc([N+](=O)[O-])c(-n3ccnc3)cc2n(C2CCCCC2)c1=O`, the inhibitory constant (Ki) in test [1] came to 110 nM.

For the compound `CC(C)CCn1c(=O)c(=O)[nH]c2cc([N+](=O)[O-])c(-n3ccnc3)cc21`, the inhibition constant Ki in test [1] was found to be 230 nM. Still for that read-out and setting: the value for `O=c1[nH]c2cc([N+](=O)[O-])c(-n3ccnc3)cc2n(C2CN3CCC2CC3)c1=O` (configuration not stated) was 1000 nM; that for `CCCCCCCCCCn1c(=O)c(=O)[nH]c2cc([N+](=O)[O-])c(-n3ccnc3)cc21` was 8900 nM. Still for that read-out and setting: then `CCCn1c(=O)c(=O)[nH]c2cc(-n3ccnc3)c([N+](=O)[O-])cc21`, with 4500 nM; and `O=c1[nH]c2cc([N+](=O)[O-])c(-n3ccnc3)cc2n(CCO)c1=O`, with 420 nM; and `O=c1[nH]c2cc([N+](=O)[O-])c(-n3ccnc3)cc2n(CC2CCCCC2)c1=O`, with 790 nM. For `O=c1[nH]c2cc([N+](=O)[O-])c(-n3ccnc3)cc2n(O)c1=O`, the inhibition constant (Ki) in test [2] came out at 630 nM; in test [3], 12 µM; in test [4] it was 4.2 µM; in test [1], 21 nM. For `CCn1c(=O)c(=O)[nH]c2cc([N+](=O)[O-])c(-n3ccnc3)cc21`, the Ki in test [1] turned out to be 190 nM. For `O=c1[nH]c2cc(-n3ccnc3)c([N+](=O)[O-])cc2[nH]c1=O` [YM-90K], the Ki in test [4] was 37 µM. `CN(C)CCn1c(=O)c(=O)[nH]c2cc([N+](=O)[O-])c(-n3ccnc3)cc21` displayed a Ki in test [1] of 840 nM. Compound `O=c1[nH]c2cc([N+](=O)[O-])c(-n3cncn3)cc2n(O)c1=O` had an inhibitory constant (Ki) in test [1] of 180 nM. On to `CCOn1c(=O)c(=O)[nH]c2cc([N+](=O)[O-])c(-n3ccnc3)cc21`, for which the inhibition constant (Ki) in test [1] was 300 nM. The compound `Cc1cn(-c2cc3c(cc2[N+](=O)[O-])[nH]c(=O)c(=O)n3O)cn1` yielded a Ki in test [1] of 50 nM.

`Cn1c(=O)c(=O)[nH]c2cc([N+](=O)[O-])c(-n3ccnc3)cc21` yielded an inhibition constant (Ki) in test [1] of 330 nM.

One may read the Ki as a dissociation constant, usually derived from enzyme kinetics or from competition with a known ligand. Lower therefore signals tighter binding.
